Data as given in ChEMBL document CHEMBL1777782, “Indole 5-carboxamide Thumb Pocket I inhibitors of HCV NS5B polymerase with nanomolar potency in cell-based subgenomic replicons (part 2): central amino acid linker and right-hand-side SAR studies” (Bioorg Med Chem Lett, 2011).
In brackets after ≈: the same amount, converted by molar mass.

Tests used:
Hepatitis C virus = assay: Antiviral activity against Hepatitis C virus genotype 1b infected in human Huh-7 cells assessed as inhibition of viral replication after 72 hrs; type: functional, organism-based, Hepacivirus hominis; details: Huh-7, 72 h
[1] = Half life in human liver microsomes at 10 uM
[2] = Inhibition of HCV 1b NS5B RNA dependent RNA polymerase by scintillation proximity assay; parameters: species or system Hepacivirus hominis
[3] = Selectivity ratio for mammalian DNA-dependent RNA polymerase II to HCV 1b NS5B RNA dependent RNA polymerase
[4] = Selectivity ratio for polio virus RNA-dependent RNA polymerase to HCV 1b NS5B RNA dependent RNA polymerase
physchem = details: phosphate buffer, pH 7.2
[5] = Permeability across apical to basolateral side in human Caco2 cells; details: Caco-2

## Cc1c(C(=O)O)sc2ccc(NC(=O)[C@]3(NC(=O)c4ccc5c(C6CCCCC6)c(-c6ccccn6)n(C)c5c4)CCCNC3)cc12
Hepatitis C virus
  EC50: 60 nM
[1]; microsomes
  half-life at 10 µM: 93 min
[2]
  IC50: 35 nM

## Cn1c(-c2ccccn2)c(C2CCCCC2)c2ccc(C(=O)NC3(C(=O)Nc4ccc(/C=C/C(=O)O)cc4)CCNCC3)cc21
Hepatitis C virus
  EC50: 2000 nM
[3]
  Ratio: > 150
[2]
  IC50: 13 nM
[4]
  Ratio: > 150

## Cn1c(-c2ccccn2)c(C2CCCCC2)c2ccc(C(=O)N[C@]3(C(=O)Nc4ccc(/C=C/C(=O)O)cc4)CCCNC3)cc21
Hepatitis C virus
  EC50: 220 nM
[3]
  Ratio: > 150
[2]
  IC50: 40 nM
[4]
  Ratio: > 150

## Cn1c(-c2ccccn2)c(C2CCCCC2)c2ccc(C(=O)NC3(C(=O)Nc4ccc(/C=C/C(=O)O)cc4)CCOCC3)cc21
physchem
  solubility thermodynamic at 24 h: 15 µg/mL (≈ 24.7 µM)
Hepatitis C virus
  EC50: 170 nM
[5]
  Papp A→B: 5.7 ×10⁻⁶ cm/s
[1]; liver microsomes
  half-life at 10 µM: 41 min
[3]
  Ratio: > 150
[2]
  IC50: 68 nM
[4]
  Ratio: > 150

## Cn1c(-c2ccccn2)c(C2CCCCC2)c2ccc(C(=O)NC(C)(C)C(=O)Nc3ccc(-c4nc(C(=O)O)cs4)cc3)cc21
physchem
  solubility thermodynamic at 24 h: 662 µg/mL (≈ 1060 µM)
Hepatitis C virus
  EC50: 420 nM
[5]
  Papp A→B: < 0.1 ×10⁻⁶ cm/s
[1]; liver microsomes
  half-life at 10 µM: 55 min
[3]
  Ratio: > 150
[2]
  IC50: 154 nM
[4]
  Ratio: > 150

## Cn1c(-c2ccccn2)c(C2CCCCC2)c2ccc(C(=O)NC(C)(C)C(=O)Nc3ccc(-c4ccc(C(N)=O)o4)cc3)cc21
physchem
  solubility thermodynamic at 24 h: < 0.1 µg/mL
Hepatitis C virus
  EC50: 96 nM
[1]; liver microsomes
  half-life at 10 µM: 19 min
[3]
  Ratio: > 150
[2]
  IC50: 330 nM
[4]
  Ratio: > 150

## Cn1c(-c2ccccn2)c(C2CCCCC2)c2ccc(C(=O)NC3(C(=O)Nc4ccc(-c5cnc(N)nc5)cc4)CCC3)cc21
physchem
  solubility thermodynamic at 24 h: 0.9 µg/mL (≈ 1.5 µM)
Hepatitis C virus
  EC50: 180 nM
[3]
  Ratio: > 150
[2]
  IC50: 745 nM
[4]
  Ratio: > 150

## Cn1c(-c2ccccn2)c(C2CCCCC2)c2ccc(C(=O)N[C@@]3(C(=O)Nc4ccc(/C=C/C(=O)O)cc4)CCNC3)cc21
physchem
  solubility thermodynamic at 24 h: 10 µg/mL (≈ 16.9 µM)
Hepatitis C virus
  EC50: 83 nM
[5]
  Papp A→B: 0.5 ×10⁻⁶ cm/s
[1]; liver microsomes
  half-life at 10 µM: > 300 min
[3]
  Ratio: > 150
[2]
  IC50: 23 nM
[4]
  Ratio: > 150

## Cn1c(C(N)=O)cc2cc(NC(=O)C(C)(C)NC(=O)c3ccc4c(C5CCCCC5)c(-c5ccccn5)n(C)c4c3)ccc21
physchem
  solubility thermodynamic at 24 h: < 0.1 µg/mL
Hepatitis C virus
  EC50: 97 nM
[1]; liver microsomes
  half-life at 10 µM: 21 min
[3]
  Ratio: > 150
[2]
  IC50: 165 nM
[4]
  Ratio: > 150

## CC(=O)N1CC[C@@](NC(=O)c2ccc3c(C4CCCCC4)c(-c4ccccn4)n(C)c3c2)(C(=O)Nc2ccc(/C=C/C(=O)O)cc2)C1
Hepatitis C virus
  EC50: 212 nM
[3]
  Ratio: > 150
[2]
  IC50: 24 nM
[4]
  Ratio: > 150

## Cn1c(-c2ccccn2)c(C2CCCCC2)c2ccc(C(=O)NC(C)(C)C(=O)Nc3ccc(-c4ccc(C(=O)O)o4)cc3)cc21
physchem
  solubility thermodynamic at 24 h: > 564 µg/mL
Hepatitis C virus
  EC50: 145 nM
[5]
  Papp A→B: 0.2 ×10⁻⁶ cm/s
[1]; liver microsomes
  half-life at 10 µM: 43 min
[3]
  Ratio: > 150
[2]
  IC50: 152 nM
[4]
  Ratio: > 150

## Cn1c(-c2ccccn2)c(C2CCCCC2)c2ccc(C(=O)NC(C)(C)C(=O)Nc3ccc4sc(C(=O)O)cc4c3)cc21
physchem
  solubility thermodynamic at 24 h: 468 µg/mL (≈ 787 µM)
Hepatitis C virus
  EC50: 88 nM
[5]
  Papp A→B: 0.4 ×10⁻⁶ cm/s
[1]; liver microsomes
  half-life at 10 µM: 49 min
[3]
  Ratio: > 150
[2]
  IC50: 23 nM
[4]
  Ratio: > 150

## Cn1c(C(=O)O)cc2cc(NC(=O)C(C)(C)NC(=O)c3ccc4c(C5CCCCC5)c(-c5ccccn5)n(C)c4c3)ccc21
physchem
  solubility thermodynamic at 24 h: 945 µg/mL (≈ 1600 µM)
Hepatitis C virus
  EC50: 143 nM
[5]
  Papp A→B: 0.7 ×10⁻⁶ cm/s
[1]; liver microsomes
  half-life at 10 µM: 36 min
[3]
  Ratio: > 150
[2]
  IC50: 75 nM
[4]
  Ratio: > 150

## Cn1c(-c2ccccn2)c(C2CCCCC2)c2ccc(C(=O)NC(C)(C)C(=O)Nc3ccc(NC(=O)C(N)=O)cc3)cc21
physchem
  solubility thermodynamic at 24 h: 1 µg/mL (≈ 1.72 µM)
Hepatitis C virus
  EC50: 139 nM
[5]
  Papp A→B: 12.9 ×10⁻⁶ cm/s
[1]; liver microsomes
  half-life at 10 µM: 25 min
[3]
  Ratio: > 150
[2]
  IC50: 124 nM
[4]
  Ratio: > 150

## CCN1CC[C@@](NC(=O)c2ccc3c(C4CCCCC4)c(-c4ccccn4)n(C)c3c2)(C(=O)Nc2ccc(/C=C/C(=O)O)cc2)C1
Hepatitis C virus
  EC50: 50 nM
[5]
  Papp A→B: 5.6 ×10⁻⁶ cm/s
[1]; liver microsomes
  half-life at 10 µM: 61 min
[3]
  Ratio: > 150
[2]
  IC50: 23 nM
[4]
  Ratio: > 150

## Cn1c(C(=O)O)cc2cc(NC(=O)[C@]3(NC(=O)c4ccc5c(C6CCCCC6)c(-c6ccccn6)n(C)c5c4)CCCNC3)ccc21
physchem
  solubility thermodynamic at 24 h: 14 µg/mL (≈ 22.1 µM)
Hepatitis C virus
  EC50: 245 nM
[5]
  Papp A→B: < 0.1 ×10⁻⁶ cm/s
[1]; liver microsomes
  half-life at 10 µM: 28 min
[3]
  Ratio: > 150
[2]
  IC50: 44 nM
[4]
  Ratio: > 150

## CN1CC[C@](NC(=O)c2ccc3c(C4CCCCC4)c(-c4ccccn4)n(C)c3c2)(C(=O)Nc2ccc(/C=C/C(=O)O)cc2)C1
physchem
  solubility thermodynamic at 24 h: 20 µg/mL (≈ 33 µM)
Hepatitis C virus
  EC50: 78 nM
[5]
  Papp A→B: 7.8 ×10⁻⁶ cm/s
[1]; microsomes
  half-life at 10 µM: 46 min
[3]
  Ratio: > 150
[2]
  IC50: 66 nM
[4]
  Ratio: > 150

## Cc1c(C(=O)O)sc2ccc(NC(=O)C3(NC(=O)c4ccc5c(C6CCCCC6)c(-c6ccccn6)n(C)c5c4)CCC3)cc12
physchem
  solubility thermodynamic at 24 h: 112 µg/mL (≈ 180 µM)
Hepatitis C virus
  EC50: 68 nM
[5]
  Papp A→B: 0.6 ×10⁻⁶ cm/s
[1]; liver microsomes
  half-life at 10 µM: 79 min
[3]
  Ratio: > 150
[2]
  IC50: 122 nM
[4]
  Ratio: > 150

## Cn1c(-c2ccccn2)c(C2CCCCC2)c2ccc(C(=O)N[C@]3(C(=O)Nc4ccc(/C=C/C(=O)O)cc4)CCNC3)cc21
physchem
  solubility thermodynamic at 24 h: 19 µg/mL (≈ 32.1 µM)
Hepatitis C virus
  EC50: 194 nM
[5]
  Papp A→B: 0.1 ×10⁻⁶ cm/s
[1]; liver microsomes
  half-life at 10 µM: 191 min
[3]
  Ratio: > 150
[2]
  IC50: 55 nM
[4]
  Ratio: > 150

## Cn1c(-c2ccccn2)c(C2CCCCC2)c2ccc(C(=O)N[C@@]3(C(=O)Nc4ccc(-c5cncnc5)cc4)CCNC3)cc21
physchem
  solubility thermodynamic at 24 h: 9 µg/mL (≈ 15 µM)
Hepatitis C virus
  EC50: 130 nM
[5]
  Papp A→B: < 0.1 ×10⁻⁶ cm/s
[1]; liver microsomes
  half-life at 10 µM: 64 min
[3]
  Ratio: > 150
[2]
  IC50: 64 nM
[4]
  Ratio: > 150

## Cn1c(-c2ccccn2)c(C2CCCCC2)c2ccc(C(=O)NC3(C(=O)Nc4ccc(S(N)(=O)=O)cc4)CCC3)cc21
physchem
  solubility thermodynamic at 24 h: < 0.1 µg/mL
Hepatitis C virus
  EC50: 350 nM
[1]; liver microsomes
  half-life at 10 µM: 15 min
[3]
  Ratio: > 150
[2]
  IC50: 312 nM
[4]
  Ratio: > 150

## Cn1c(-c2ccccn2)c(C2CCCCC2)c2ccc(C(=O)NC3(C(=O)Nc4ccc(/C=C/C(=O)O)cc4)CCCCC3)cc21
physchem
  solubility thermodynamic at 24 h: 5 µg/mL (≈ 8.27 µM)
Hepatitis C virus
  EC50: 129 nM
[1]; liver microsomes
  half-life at 10 µM: 61 min
[3]
  Ratio: > 150
[2]
  IC50: 194 nM
[4]
  Ratio: > 150

## CN1CCCC(NC(=O)c2ccc3c(C4CCCCC4)c(-c4ccccn4)n(C)c3c2)(C(=O)Nc2ccc(/C=C/C(=O)O)cc2)C1 (racemic)
Hepatitis C virus
  EC50: 66 nM
[3]
  Ratio: > 150
[2]
  IC50: 43 nM
[4]
  Ratio: > 150

## Cc1c(C(N)=O)sc2ccc(NC(=O)C3(NC(=O)c4ccc5c(C6CCCCC6)c(-c6ccccn6)n(C)c5c4)CCC3)cc12
Hepatitis C virus
  EC50: 76 nM
[1]; liver microsomes
  half-life at 10 µM: 71 min
[3]
  Ratio: > 150
[2]
  IC50: 86 nM
[4]
  Ratio: > 150

## CC(C)(NC(=O)c1ccc2c(c1)nc(-c1ccoc1)n2C1CCCCC1)C(=O)Nc1ccc(/C=C/C(=O)O)cc1
[2]
  IC50: 40 nM

## CN1CCC(NC(=O)c2ccc3c(C4CCCCC4)c(-c4ccccn4)n(C)c3c2)(C(=O)Nc2ccc3sc(C(=O)O)cc3c2)CC1
Hepatitis C virus
  EC50: 220 nM
[3]
  Ratio: > 150
[2]
  IC50: 17 nM
[4]
  Ratio: > 150

## Cn1c(-c2ccccn2)c(C2CCCCC2)c2ccc(C(=O)NC(C)(C)C(=O)Nc3ccc(-c4nc(C(N)=O)cs4)cc3)cc21
physchem
  solubility thermodynamic at 24 h: < 0.1 µg/mL
Hepatitis C virus
  EC50: 150 nM
[1]; liver microsomes
  half-life at 10 µM: 16 min
[3]
  Ratio: > 150
[2]
  IC50: 317 nM
[4]
  Ratio: > 150

## Cn1c(-c2ccccn2)c(C2CCCCC2)c2ccc(C(=O)NC(C)(C)C(=O)Nc3ccc(NC(=O)C(=O)O)cc3)cc21
Hepatitis C virus
  EC50: 2500 nM
[3]
  Ratio: > 150
[2]
  IC50: 34 nM
[4]
  Ratio: > 150
